Experimental data as given in patent publication US11339156B2, “3-(1H-pyrazol-4-yl)pyridine allosteric modulators of the M4 muscarinic acetylcholine receptor” (Merck Sharp & Dohme Corp., priority 2017, dated 2022).

target: T1, human M4 muscarinic acetylcholine receptor (Homo sapiens, UniProt P08173); experiment: human FLIPR-based M4 PAM assay (CHO-K1 cells with human M4 receptor and Gαqi5, calcium dye fluorescence); assay type: cell-based; settings: inflection point of 4 parameter logistic fit; acetylcholine added at 20% of maximum response; read-out: M4PAM IP
T1 construct: expressed in transfected cells
T1 sequence (P08173 1-479): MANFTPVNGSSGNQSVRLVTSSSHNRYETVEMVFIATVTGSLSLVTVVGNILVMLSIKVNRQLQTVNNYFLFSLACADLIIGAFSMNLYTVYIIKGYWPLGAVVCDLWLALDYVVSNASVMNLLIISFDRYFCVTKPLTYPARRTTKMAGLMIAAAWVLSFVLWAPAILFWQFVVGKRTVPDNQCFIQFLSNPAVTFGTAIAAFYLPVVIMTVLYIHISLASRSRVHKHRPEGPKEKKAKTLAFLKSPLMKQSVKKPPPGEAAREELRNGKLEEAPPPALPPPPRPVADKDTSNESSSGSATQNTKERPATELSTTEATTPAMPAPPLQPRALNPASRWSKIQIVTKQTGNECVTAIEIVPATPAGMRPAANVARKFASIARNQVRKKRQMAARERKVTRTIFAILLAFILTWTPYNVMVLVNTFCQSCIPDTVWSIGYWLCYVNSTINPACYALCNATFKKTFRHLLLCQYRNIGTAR
Outline: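 The FLIPR read recorded 4 min after compound was added across a concentration range, then 3.5 min after acetylcholine giving 20% of its maximal response, with an occasional extra EC70 addition. Cells were dye-loaded for about 1 h at 37 °C. Potency is the curve inflection point from a four-parameter logistic fit.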

Compound	EC50 [nM]
CC(C)(C)Cn1cc(-c2cc(F)cnc2-c2ccn3ccnc3c2)cn1 [Example 80, 7-{3-[1-(2,2-dimethylpropyl)-1H-pyrazol-4-yl]-5-fluoropyridin-2-yl}imidazo[1,2-a]pyridine]	97.7
CC(C)(C)Cn1cc(-c2ccc(C#N)nc2-c2ccc3cnnn3c2)cn1 [Example 84, 5-[1-(2,2-dimethylpropyl)-1H-pyrazol-4-yl]-6-[1,2,3]triazolo[1,5-a]pyridin-6-ylpyridine-2-carbonitrile]	235
COc1ccc(-c2cnn(CC(C)(C)C)c2)c(-c2ccn3cc(C)nc3c2)n1 [Example 85, 7-{3-[1-(2,2-dimethylpropyl)-1H-pyrazol-4-yl]-6-methoxypyridin-2-yl}-2-methylimidazo[1,2-a]pyridine]	149
Cc1cn2ccc(-c3ncccc3-c3cnn(CC(C)(C)C)c3)cc2n1 [Example 87, 7-{3-[1-(2,2-dimethylpropyl)-1H-pyrazol-4-yl]pyridin-2-yl}-2-methylimidazo[1,2-a]pyridine]	121
Cc1nc2cc(-c3nc(C#N)ccc3-c3cnn(CC(C)(C)C)c3)cnc2n1C [Example 89, 6-(2,3-dimethyl-3H-imidazo[4,5-b]pyridin-6-yl)-5-[1-(2,2-dimethylpropyl)-1H-pyrazol-4-yl]pyridine-2-carbonitrile]	116
Cc1cn2ccc(-c3nc(C#N)ccc3-c3cnn(CC(O)C(C)C)c3)cc2n1 (stereo not drawn) [Example 90, 5-[1-(2-hydroxy-3-methylbutyl)-1H-pyrazol-4-yl]-6-(2-methylimidazo[1,2-a]pyridin-7-yl)pyridine-2-carbonitrile]	92.2
Cc1ccc(-c2cnn(CCC(C)C)c2F)c(-c2ccn3ccnc3c2)n1 [Example 95, 7-{3-[5-fluoro-1-(3-methylbutyl)-1H-pyrazol-4-yl]-6-methylpyridin-2-yl}imidazo[1,2-a]pyridine]	79.9
Cc1ccc(-c2cnn(CC(C)C)c2)c(-c2ccc3c(c2)C(=O)N(C2CC2)C3)n1 [Example 96, 2-cyclopropyl-6-{6-methyl-3-[1-(2-methylpropyl)-1H-pyrazol-4-yl]pyridin-2-yl}-2,3-dihydro-1H-isoindol-1-one]	197
CC(C)(C)Cn1cc(-c2ccc(C3CC3)nc2-c2ccn3ccnc3c2)cn1 [Example 99, 7-{6-cyclopropyl-3-[1-(2,2-dimethylpropyl)-1H-pyrazol-4-yl]pyridin-2-yl}imidazo[1,2-a]pyridine]	152
CC(C)(C)Cn1cc(-c2ccc(OC(F)(F)F)nc2-c2ccn3ccnc3c2)cn1 [Example 100, 7-{3-[1-(2,2-dimethylpropyl)-1H-pyrazol-4-yl]-6-(trifluoromethoxy)pyridin-2-yl}imidazo [1,2-a]pyridine]	211
Cc1nc2cc(-c3ncccc3-c3cnn(CC(C)(C)C(C)(F)F)c3)ccc2n1C [Example 102, 5-{3-[1-(3,3-difluoro-2,2-dimethylbutyl)-1H-pyrazol-4-yl]pyridin-2-yl}-1,2-dimethyl-1H-benzimidazole]	113
Cc1nc2cc(-c3ncc(F)cc3-c3cnn(CC(C)(C)C(C)(F)F)c3)ccc2n1C [Example 103, 5-(3-(1-(3,3-difluoro-2,2-dimethylbutyl)-1H-pyrazol-4-yl)-5-fluoropyridin-2-yl)-1,2-dimethyl-1H-benzo[d]imidazole]	117
COCc1nc2cc(-c3nc(C#N)ccc3-c3cnn(CC(C)(C)C)c3)ccn2n1 [Example 105, 5-[1-(2,2-dimethylpropyl)-1H-pyrazol-4-yl]-6-[2-(methoxymethyl)[1,2,4]triazolo[1,5-a]pyridin-7-yl]pyridine-2-carbonitrile]	70.5
Cc1cn2ccc(-c3ncc(F)cc3-c3cnn(CC(C)(C)C(F)F)c3)cc2n1 [Example 106, 7-{3-[1-(3,3-difluoro-2,2-dimethylpropyl)-1H-pyrazol-4-yl]-5-fluoropyridin-2-yl}-2-methylimidazo[1,2-a]pyridine]	69.5
Cc1ccc(-c2cnn(CC3CC3(C)C)c2)c(-c2ccn3ccnc3c2)n1 (stereo not drawn) [Example 109, 7-(3-{1-[(2,2-dimethylcyclopropyl)methyl]-1H-pyrazol-4-yl}-6-methylpyridin-2-yl)imidazo[1,2-a]pyridine]	75.9

Continued by falling EC50, values first:

EC50 [nM]	Compound
68.7	Cc1cn2ncc(-c3nc(C#N)ccc3-c3cnn(CC(C)(C)C)c3)cc2n1 [Example 88, 5-[1-(2,2-dimethylpropyl)-1H-pyrazol-4-yl]-6-(2-methylimidazo[1,2-b]pyridazin-7-yl)pyridine-2-carbonitrile]
60.8	CC(C)CCn1cc(-c2ccc(Cl)nc2-c2ccc3c(c2)C(=O)N(Cc2ccccn2)C3)cn1 [Example 112, 6-{6-chloro-3-[1-(3-methylbutyl)-1H-pyrazol-4-yl]pyridin-2-yl}-2-(pyridin-2-ylmethyl)-2,3-dihydro-1H-isoindol-1-one]
58	Cc1nc2cc(-c3nc(C#N)ccc3-c3cnn(CC(C)(C)C(F)(F)F)c3)ccn2n1 [Example 101, 6-(2-methyl[1,2,4]triazolo [1,5-a]pyridin-7-yl)-5-[1-(3,3,3-trifluoro-2,2-dimethylpropyl)-1H-pyrazol-4-yl]pyridine-2-carbonitrile]
54	CC(C)CCn1cc(-c2ccc(Cl)nc2-c2ccc3c(c2)C(=O)N(Cc2ccccc2F)C3)cn1 [Example 113, 6-{6-chloro-3-[1-(3-methylbutyl)-1H-pyrazol-4-yl]pyridin-2-yl}-2-(2-fluorobenzyl)-2,3-dihydro-1H-isoindol-1-one]
51.6	CC(C)(C)Cn1cc(-c2ccc(C#N)nc2-c2ccn3c(F)cnc3c2)cn1 [Example 82, 5-[1-(2,2-dimethylpropyl)-1H-pyrazol-4-yl]-6-(3-fluoroimidazo[1,2-a]pyridin-7-yl)pyridine-2-carbonitrile]
46	CC(C)(C)Cn1cc(-c2ccc(C(F)(F)F)nc2-c2ccn3ccnc3c2)cn1 [Example 83, 7-{3-[1-(2,2-dimethylpropyl)-1H-pyrazol-4-yl]-6-(trifluoromethyl)pyridin-2-yl}imidazo[1,2-a]pyridine]
45	CN1Cc2ccc(-c3nc(C#N)ccc3-c3cnn(CC(C)(C)C(F)F)c3)cc2C1=O [Example 97, 5-[1-(3,3-difluoro-2,2-dimethylpropyl)-1H-pyrazol-4-yl]-6-(2-methyl-3-oxo-2,3-dihydro-1H-isoindol-5-yl)pyridine-2-carbonitrile]
44.7	COCc1cn2ccc(-c3nc(C#N)ccc3-c3cnn(CC(C)(C)C)c3)cc2n1 [Example 104, 5-[1-(2,2-dimethylpropyl)-1H-pyrazol-4-yl]-6-[2-(methoxymethyl)imidazo[1,2-a]pyridin-7-yl]pyridine-2-carbonitrile]
40.8	CC(C)(C)Cn1cc(-c2ccc(C(F)F)nc2-c2ccn3ccnc3c2)cn1 [Example 98, 7-{6-(difluoromethyl)-3-[1-(2,2-dimethylpropyl)-1H-pyrazol-4-yl]pyridin-2-yl}imidazo[1,2-a]pyridine]
40.2	CC(C)CCn1cc(-c2ccc(Cl)nc2-c2ccc3c(c2)C(=O)NC3)cn1 [Example 110, 6-(6-chloro-3-(1-isopentyl-1H-pyrazol-4-yl)pyridin-2-yl)isoindolin-1-one]
40.2	CC(C)CCn1cc(-c2ccc(Cl)nc2-c2ccc3c(c2)C(=O)N(CC(F)(F)F)C3)cn1 [Example 111, 6-chloro-3-(1-isopentyl-1H-pyrazol-4-yl)-2-(3-oxo-2-(2,2,2-trifluoroethyl)isoindolin-5-yl)pyridin-1-ium]
38.4	CC(C)(C)Cn1cc(-c2ccc(C#N)nc2-c2ccc3nn[nH]c3c2)cn1 [Example 79, 6-(1H-benzotriazol-6-yl)-5-[1-(2,2-dimethylpropyl)-1H-pyrazol-4-yl]pyridine-2-carbonitrile]
32.1	CC(C)(Cn1cc(-c2ccc(C#N)nc2-c2ccn3ccnc3c2)cn1)C(F)F [Example 107, 5-[1-(3,3-difluoro-2,2-dimethylpropyl)-1H-pyrazol-4-yl]-6-imidazo[1,2-a]pyridin-7-ylpyridine-2-carbonitrile]
27.5	N#Cc1ccc(-c2cnn(CC3CCC3)c2)c(-c2ccn3ccnc3c2)n1 [Example 93, 5-[1-(cyclobutylmethyl)-1H-pyrazol-4-yl]-6-imidazo[1,2-a]pyridin-7-ylpyridine-2-carbonitrile]
24.7	Cc1cn2ccc(-c3nc(C#N)ccc3-c3cnn(CC(C)(C)C)c3)cc2n1 [Example 81, 5-[1-(2,2-dimethylpropyl)-1H-pyrazol-4-yl]-6-(2-methylimidazo[1,2-a]pyridin-7-yl)pyridine-2-carbonitrile]
23.6	CC1(Cn2cc(-c3ccc(C#N)nc3-c3ccn4ccnc4c3)cn2)CCC1 [Example 94, 6-imidazo[1,2-a]pyridin-7-yl-5-{1-[(1-methylcyclobutyl)methyl]-1H-pyrazol-4-yl}pyridine-2-carbonitrile]
22.8	CC(C)CCn1cc(-c2ccc(Cl)nc2-c2ccc3c(c2)C(=O)N(Cc2ccc(O)cc2)C3)cn1 [Example 114, 6-{6-chloro-3-[1-(3-methylbutyl)-1H-pyrazol-4-yl]pyridin-2-yl}-2-(4-hydroxybenzyl)-2,3-dihydro-1H-isoindol-1-one]
17.1	CCC(C)(C)Cn1cc(-c2ccc(C#N)nc2-c2ccn3ccnc3c2)cn1 [Example 91, 5-[1-(2,2-dimethylbutyl)-1H-pyrazol-4-yl]-6-imidazo[1,2-a]pyridin-7-ylpyridine-2-carbonitrile]
